How the values were obtained:
[1] = system: Tyrosine-protein kinase ABL1 (Homo sapiens), P00519 [Q252H]; details: Compound concentration 1000.0 nM
[2] = system: Tyrosine-protein kinase ABL1 (Homo sapiens), P00519 [Y253F]; details: Compound concentration 1000.0 nM
[3] = target: Serine/threonine-protein kinase BRSK1 (Homo sapiens) (UniProt Q8TDC3); details: Compound concentration 1000.0 nM
[4] = target: Cyclin-dependent kinase 11A (Homo sapiens) (UniProt Q9UQ88); details: Compound concentration 1000.0 nM
[5] = target: Cyclin-dependent kinase 4 (Homo sapiens) (UniProt P11802); details: Compound concentration 1000.0 nM
Sequence of Cyclin-dependent kinase 4 (Homo sapiens) (P11802 whole entry): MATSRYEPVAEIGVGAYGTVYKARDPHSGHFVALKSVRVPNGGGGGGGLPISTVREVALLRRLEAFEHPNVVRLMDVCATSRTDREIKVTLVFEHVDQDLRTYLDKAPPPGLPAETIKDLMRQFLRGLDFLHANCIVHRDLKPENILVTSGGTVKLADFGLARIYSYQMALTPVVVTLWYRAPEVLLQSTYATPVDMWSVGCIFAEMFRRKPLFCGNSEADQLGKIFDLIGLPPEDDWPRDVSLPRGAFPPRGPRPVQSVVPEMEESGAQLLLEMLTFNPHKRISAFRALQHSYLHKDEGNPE

[6] = target: Cyclin-dependent kinase 8 (Homo sapiens) (UniProt P49336); details: Compound concentration 1000.0 nM
Sequence of Cyclin-dependent kinase 8 (Homo sapiens) (P49336 whole entry): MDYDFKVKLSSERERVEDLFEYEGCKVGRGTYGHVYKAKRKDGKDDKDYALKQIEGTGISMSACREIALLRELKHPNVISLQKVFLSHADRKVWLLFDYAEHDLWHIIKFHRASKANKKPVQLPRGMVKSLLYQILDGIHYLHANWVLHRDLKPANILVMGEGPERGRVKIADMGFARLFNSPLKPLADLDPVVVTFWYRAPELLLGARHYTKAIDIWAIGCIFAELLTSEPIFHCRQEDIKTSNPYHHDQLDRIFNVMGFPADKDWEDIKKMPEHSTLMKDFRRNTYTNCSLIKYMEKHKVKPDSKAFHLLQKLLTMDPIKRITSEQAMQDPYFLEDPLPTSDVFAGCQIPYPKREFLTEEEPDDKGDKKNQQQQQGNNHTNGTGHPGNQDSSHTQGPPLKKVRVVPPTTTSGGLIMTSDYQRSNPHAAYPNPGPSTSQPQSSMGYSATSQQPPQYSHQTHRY

[7] = target: Citron Rho-interacting kinase (Homo sapiens) (UniProt O14578); details: Compound concentration 1000.0 nM
[8] = target: Casein kinase I isoform gamma-2 (Homo sapiens) (UniProt P78368); details: Compound concentration 1000.0 nM
[9] = target: Casein kinase I isoform gamma-3 (Homo sapiens) (UniProt Q9Y6M4); details: Compound concentration 1000.0 nM
[10] = system: Epidermal growth factor receptor (Homo sapiens), P00533 [L858R,T790M]; details: Compound concentration 1000.0 nM
[11] = target: Ephrin type-B receptor 2 (Homo sapiens) (UniProt P29323); details: Compound concentration 1000.0 nM
[12] = system: Fibroblast growth factor receptor 3 (Homo sapiens), P22607 [G697C]; details: Compound concentration 1000.0 nM
[13] = target: Tyrosine-protein kinase ITK/TSK (Homo sapiens) (UniProt Q08881); details: Compound concentration 1000.0 nM
Sequence of Tyrosine-protein kinase ITK/TSK (Homo sapiens) (Q08881 whole entry): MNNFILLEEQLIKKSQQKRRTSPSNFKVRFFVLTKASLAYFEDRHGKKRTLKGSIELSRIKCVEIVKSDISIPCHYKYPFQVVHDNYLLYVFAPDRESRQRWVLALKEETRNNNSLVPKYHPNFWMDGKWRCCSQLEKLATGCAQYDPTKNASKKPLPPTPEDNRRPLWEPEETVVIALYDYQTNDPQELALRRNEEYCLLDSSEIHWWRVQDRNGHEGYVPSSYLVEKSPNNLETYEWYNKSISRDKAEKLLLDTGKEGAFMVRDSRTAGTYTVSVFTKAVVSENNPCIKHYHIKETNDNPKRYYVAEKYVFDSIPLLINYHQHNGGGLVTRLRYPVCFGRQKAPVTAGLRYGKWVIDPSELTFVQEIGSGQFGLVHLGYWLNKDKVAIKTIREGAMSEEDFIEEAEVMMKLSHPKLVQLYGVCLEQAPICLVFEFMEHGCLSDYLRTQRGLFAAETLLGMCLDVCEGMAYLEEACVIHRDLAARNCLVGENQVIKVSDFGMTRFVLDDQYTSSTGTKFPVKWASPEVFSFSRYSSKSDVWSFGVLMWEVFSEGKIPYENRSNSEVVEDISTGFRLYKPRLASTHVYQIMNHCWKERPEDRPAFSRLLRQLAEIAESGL

[14] = target: Mitogen-activated protein kinase kinase kinase 4 (Homo sapiens) (UniProt Q9Y6R4); details: Compound concentration 1000.0 nM
Sequence of Mitogen-activated protein kinase kinase kinase 4 (Homo sapiens) (Q9Y6R4 whole entry): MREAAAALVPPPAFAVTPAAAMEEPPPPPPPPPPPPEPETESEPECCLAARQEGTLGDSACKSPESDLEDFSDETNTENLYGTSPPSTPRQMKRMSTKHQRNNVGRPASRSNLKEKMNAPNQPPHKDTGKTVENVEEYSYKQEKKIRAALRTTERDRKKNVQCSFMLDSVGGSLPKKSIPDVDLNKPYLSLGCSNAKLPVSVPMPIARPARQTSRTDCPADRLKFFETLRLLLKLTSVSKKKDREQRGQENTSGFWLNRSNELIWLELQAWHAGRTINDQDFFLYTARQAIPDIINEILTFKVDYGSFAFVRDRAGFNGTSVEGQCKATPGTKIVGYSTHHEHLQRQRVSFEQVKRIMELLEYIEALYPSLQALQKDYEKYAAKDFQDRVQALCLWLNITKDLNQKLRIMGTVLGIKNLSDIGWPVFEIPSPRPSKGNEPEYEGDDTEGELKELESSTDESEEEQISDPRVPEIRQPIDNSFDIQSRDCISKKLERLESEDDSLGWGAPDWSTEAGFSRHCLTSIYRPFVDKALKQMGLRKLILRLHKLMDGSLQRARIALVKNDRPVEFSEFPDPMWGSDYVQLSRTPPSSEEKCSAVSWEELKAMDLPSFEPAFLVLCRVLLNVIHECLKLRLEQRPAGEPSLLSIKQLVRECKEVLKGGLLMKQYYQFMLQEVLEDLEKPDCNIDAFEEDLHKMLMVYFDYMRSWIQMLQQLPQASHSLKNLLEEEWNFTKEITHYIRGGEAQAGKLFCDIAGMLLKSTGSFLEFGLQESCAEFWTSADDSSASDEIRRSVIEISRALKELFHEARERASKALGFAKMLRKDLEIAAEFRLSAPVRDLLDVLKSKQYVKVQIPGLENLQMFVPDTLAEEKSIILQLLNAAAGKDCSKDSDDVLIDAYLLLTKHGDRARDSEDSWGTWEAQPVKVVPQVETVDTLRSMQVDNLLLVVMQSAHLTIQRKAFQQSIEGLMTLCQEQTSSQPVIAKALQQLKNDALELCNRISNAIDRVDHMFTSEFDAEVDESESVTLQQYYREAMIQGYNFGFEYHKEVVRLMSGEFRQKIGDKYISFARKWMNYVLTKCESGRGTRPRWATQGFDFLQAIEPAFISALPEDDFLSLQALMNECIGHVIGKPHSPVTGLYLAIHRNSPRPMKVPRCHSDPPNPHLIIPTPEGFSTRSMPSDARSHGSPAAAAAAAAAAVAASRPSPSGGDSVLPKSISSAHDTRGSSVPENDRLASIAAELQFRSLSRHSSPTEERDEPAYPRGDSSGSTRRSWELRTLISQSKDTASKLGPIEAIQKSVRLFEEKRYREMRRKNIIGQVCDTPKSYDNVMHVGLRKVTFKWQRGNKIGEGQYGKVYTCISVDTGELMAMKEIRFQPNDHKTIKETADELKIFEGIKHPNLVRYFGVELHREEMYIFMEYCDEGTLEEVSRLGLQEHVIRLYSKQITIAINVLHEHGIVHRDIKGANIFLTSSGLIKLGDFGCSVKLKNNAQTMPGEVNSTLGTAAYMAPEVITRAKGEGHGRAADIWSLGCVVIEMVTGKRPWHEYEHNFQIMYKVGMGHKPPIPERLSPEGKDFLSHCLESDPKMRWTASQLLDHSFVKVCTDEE

[15] = target: Dual specificity mitogen-activated protein kinase kinase 1 (Homo sapiens) (UniProt Q02750); details: Compound concentration 1000.0 nM
[16] = target: Serine/threonine-protein kinase MRCK alpha (Homo sapiens) (UniProt Q5VT25); details: Compound concentration 1000.0 nM
[17] = target: Serine/threonine-protein kinase MRCK beta (Homo sapiens) (UniProt Q9Y5S2); details: Compound concentration 1000.0 nM
[18] = target: Macrophage-stimulating protein receptor (Homo sapiens) (UniProt Q04912); details: Compound concentration 1000.0 nM
[19] = target: Serine/threonine-protein kinase OSR1 (Homo sapiens) (UniProt O95747); details: Compound concentration 1000.0 nM
[20] = target: Serine/threonine-protein kinase PAK 4 (Homo sapiens) (UniProt O96013); details: Compound concentration 1000.0 nM
Sequence of Serine/threonine-protein kinase PAK 4 (Homo sapiens) (O96013 whole entry, looked up, the tested form may be a part): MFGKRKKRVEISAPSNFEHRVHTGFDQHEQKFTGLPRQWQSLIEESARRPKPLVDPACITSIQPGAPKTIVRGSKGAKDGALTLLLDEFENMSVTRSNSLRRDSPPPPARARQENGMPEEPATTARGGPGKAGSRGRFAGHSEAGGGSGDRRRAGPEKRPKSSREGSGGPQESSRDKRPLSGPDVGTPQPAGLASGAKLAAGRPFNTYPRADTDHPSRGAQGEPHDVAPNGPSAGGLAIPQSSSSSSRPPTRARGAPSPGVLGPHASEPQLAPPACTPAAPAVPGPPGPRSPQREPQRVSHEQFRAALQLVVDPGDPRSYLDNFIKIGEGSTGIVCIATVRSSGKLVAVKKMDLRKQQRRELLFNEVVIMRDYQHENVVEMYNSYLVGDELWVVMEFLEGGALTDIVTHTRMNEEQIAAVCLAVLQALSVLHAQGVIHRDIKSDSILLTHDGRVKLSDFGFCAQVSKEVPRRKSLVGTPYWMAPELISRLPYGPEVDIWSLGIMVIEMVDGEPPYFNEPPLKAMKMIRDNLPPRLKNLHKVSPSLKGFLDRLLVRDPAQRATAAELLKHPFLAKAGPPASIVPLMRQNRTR

[21] = target: Phosphatidylinositol 4-phosphate 3-kinase C2 domain-containing subunit beta (Homo sapiens) (UniProt O00750); details: Compound concentration 1000.0 nM
[22] = target: Phosphatidylinositol 4,5-bisphosphate 3-kinase catalytic subunit alpha isoform (Homo sapiens) (UniProt P42336); details: Compound concentration 1000.0 nM
[23] = system: Phosphatidylinositol 4,5-bisphosphate 3-kinase catalytic subunit alpha isoform (Homo sapiens), P42336 [H1047Y]; details: Compound concentration 1000.0 nM
Sequence of Phosphatidylinositol 4,5-bisphosphate 3-kinase catalytic subunit alpha isoform (Homo sapiens), P42336 [H1047Y] (P42336 whole entry H1047Y, canonical isoform): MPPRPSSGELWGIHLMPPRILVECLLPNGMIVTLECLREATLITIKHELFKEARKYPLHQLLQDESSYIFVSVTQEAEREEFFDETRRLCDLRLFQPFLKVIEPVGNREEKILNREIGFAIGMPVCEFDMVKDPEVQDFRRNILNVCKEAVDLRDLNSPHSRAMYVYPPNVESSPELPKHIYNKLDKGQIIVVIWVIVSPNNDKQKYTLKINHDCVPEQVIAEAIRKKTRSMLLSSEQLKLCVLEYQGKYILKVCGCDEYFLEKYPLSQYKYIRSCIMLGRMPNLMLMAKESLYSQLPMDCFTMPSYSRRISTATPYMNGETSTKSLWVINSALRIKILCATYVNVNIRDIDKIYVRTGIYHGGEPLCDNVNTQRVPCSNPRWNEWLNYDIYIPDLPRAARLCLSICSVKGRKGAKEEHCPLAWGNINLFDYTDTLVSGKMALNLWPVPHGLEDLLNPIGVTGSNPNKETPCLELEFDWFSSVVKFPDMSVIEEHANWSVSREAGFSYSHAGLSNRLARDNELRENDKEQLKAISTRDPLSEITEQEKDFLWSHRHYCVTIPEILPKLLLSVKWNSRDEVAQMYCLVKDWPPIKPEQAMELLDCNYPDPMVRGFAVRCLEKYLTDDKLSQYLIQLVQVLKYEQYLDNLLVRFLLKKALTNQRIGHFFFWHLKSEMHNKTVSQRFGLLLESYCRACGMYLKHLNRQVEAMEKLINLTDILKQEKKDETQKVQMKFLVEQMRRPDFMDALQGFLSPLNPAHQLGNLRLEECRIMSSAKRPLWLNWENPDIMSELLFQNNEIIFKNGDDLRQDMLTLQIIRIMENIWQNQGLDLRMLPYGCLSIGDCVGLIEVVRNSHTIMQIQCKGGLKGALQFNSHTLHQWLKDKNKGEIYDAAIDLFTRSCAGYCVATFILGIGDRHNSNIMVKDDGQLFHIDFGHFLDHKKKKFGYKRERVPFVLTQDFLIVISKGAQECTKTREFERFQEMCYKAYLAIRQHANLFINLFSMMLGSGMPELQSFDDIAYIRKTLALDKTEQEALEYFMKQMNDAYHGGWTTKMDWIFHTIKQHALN

[24] = target: Phosphatidylinositol 4,5-bisphosphate 3-kinase catalytic subunit delta isoform (Homo sapiens) (UniProt O00329); details: Compound concentration 1000.0 nM
[25] = target: Serine/threonine-protein kinase PLK2 (Homo sapiens) (UniProt Q9NYY3); details: Compound concentration 1000.0 nM
[26] = target: Protein kinase C delta type (Homo sapiens) (UniProt Q05655); details: Compound concentration 1000.0 nM
[27] = system: Proto-oncogene tyrosine-protein kinase receptor Ret (Homo sapiens), P07949 [V804M]; details: Compound concentration 1000.0 nM
[28] = target: Uncharacterized serine/threonine-protein kinase SBK3 (Homo sapiens) (UniProt P0C264); details: Compound concentration 1000.0 nM
[29] = target: Serine/threonine-protein kinase 16 (Homo sapiens) (UniProt O75716); details: Compound concentration 1000.0 nM
Sequence of Serine/threonine-protein kinase 16 (Homo sapiens) (O75716 whole entry): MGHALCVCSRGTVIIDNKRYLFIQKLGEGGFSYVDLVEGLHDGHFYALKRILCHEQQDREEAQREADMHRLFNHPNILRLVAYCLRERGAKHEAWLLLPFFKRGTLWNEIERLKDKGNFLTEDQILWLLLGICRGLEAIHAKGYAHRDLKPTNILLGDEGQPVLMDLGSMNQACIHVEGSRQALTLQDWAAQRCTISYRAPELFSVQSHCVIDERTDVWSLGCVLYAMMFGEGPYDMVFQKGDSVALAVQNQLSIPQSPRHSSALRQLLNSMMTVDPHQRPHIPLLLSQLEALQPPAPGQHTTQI

[30] = target: Tyrosine-protein kinase SYK (Homo sapiens) (UniProt P43405); details: Compound concentration 1000.0 nM
[31] = target: Non-receptor tyrosine-protein kinase TNK1 (Homo sapiens) (UniProt Q13470); details: Compound concentration 1000.0 nM
[32] = target: Non-receptor tyrosine-protein kinase TYK2 (Homo sapiens) (UniProt P29597); details: Compound concentration 1000.0 nM
[33] = target: Serine/threonine-protein kinase 32B (Homo sapiens) (UniProt Q9NY57); details: Compound concentration 1000.0 nM
[34] = target: Serine/threonine-protein kinase 32C (Homo sapiens) (UniProt Q86UX6); details: Compound concentration 1000.0 nM
[35] = target: T1, 5-hydroxytryptamine receptor 3A (Homo sapiens) (UniProt P46098); details: Compound concentration 10.0 uM
T1 sequence (whole entry): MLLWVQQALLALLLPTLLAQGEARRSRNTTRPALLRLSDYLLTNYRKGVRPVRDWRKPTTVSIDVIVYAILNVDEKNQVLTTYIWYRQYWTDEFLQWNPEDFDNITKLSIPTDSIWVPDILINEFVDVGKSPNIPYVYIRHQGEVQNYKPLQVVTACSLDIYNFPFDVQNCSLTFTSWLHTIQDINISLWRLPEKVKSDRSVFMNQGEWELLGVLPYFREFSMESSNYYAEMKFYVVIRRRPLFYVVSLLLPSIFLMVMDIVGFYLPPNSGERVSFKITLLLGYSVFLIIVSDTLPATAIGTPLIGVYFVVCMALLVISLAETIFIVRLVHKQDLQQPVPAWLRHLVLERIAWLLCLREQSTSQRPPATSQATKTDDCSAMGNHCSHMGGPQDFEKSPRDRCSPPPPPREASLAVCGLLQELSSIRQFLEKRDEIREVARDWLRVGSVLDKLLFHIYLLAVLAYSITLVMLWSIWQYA

[36] = target: Mu-type opioid receptor (Homo sapiens) (UniProt P35372); details: Compound concentration 10.0 uM
[37] = target: GABA-A receptor; anion channel (Rattus norvegicus) (UniProt O09028+P15431+P18506+P18508+P19969+P20236+P23574+P23576+P28471+P28473+P30191+P62813+P63079+P63138+Q91ZM7+Q9ES14); details: Compound concentration 10.0 uM

Cc1c(C(=O)O)cc(-c2ccc(C3CCNCC3)cc2)c2ccc(-c3ccc(C(F)(F)F)cc3)cc12 [PPTN-NC]
inactive: residual activity [1] 85% | residual activity [2] 87% | residual activity [3] 100% | residual activity [4] 100% | residual activity [5] 100% | residual activity [6] 100% | residual activity [7] 100% | residual activity [8] 100% | residual activity [9] 100% | residual activity [10] 100% | residual activity [11] 92% | residual activity [12] 100% | residual activity [13] 100% | residual activity [14] 100% | residual activity [15] 100% | residual activity [16] 100% | residual activity [17] 100% | residual activity [18] 100% | residual activity [19] 100% | residual activity [20] 100% | residual activity [21] 100% | residual activity [22] 100% | residual activity [23] 100% | residual activity [24] 100% | residual activity [25] 100% | residual activity [26] 100% | residual activity [27] 98% | residual activity [28] 80% | residual activity [29] 100% | residual activity [30] 100% | residual activity [31] 100% | residual activity [32] 100% | residual activity [33] 100% | residual activity [34] 100% | inhibition [35] 4.62% | inhibition [36] 12.6% | inhibition [37] 10.6%

O=C(O)c1cc(-c2ccc(C3CCNCC3)cc2)c2ccc(-c3ccc(C(F)(F)F)cc3)cc2c1 [PPTN]
inactive: residual activity [1] 100% | residual activity [2] 73% | residual activity [3] 100% | residual activity [4] 100% | residual activity [5] 100% | residual activity [6] 100% | residual activity [7] 100% | residual activity [8] 100% | residual activity [9] 100% | residual activity [10] 100% | residual activity [11] 100% | residual activity [12] 100% | residual activity [13] 100% | residual activity [14] 100% | residual activity [15] 100% | residual activity [16] 100% | residual activity [17] 100% | residual activity [18] 100% | residual activity [19] 100% | residual activity [20] 100% | residual activity [21] 100% | residual activity [22] 100% | residual activity [23] 84% | residual activity [24] 98% | residual activity [25] 100% | residual activity [26] 100% | residual activity [27] 100% | residual activity [28] 75% | residual activity [29] 100% | residual activity [30] 100% | residual activity [31] 100% | residual activity [32] 100% | residual activity [33] 100% | residual activity [34] 100% | inhibition [35] 4.14% | inhibition [36] 19.3% | inhibition [37] -3.62%
